{
  "source": "paper PMC11002875",
  "about": "“Linking triphenylphosphonium cation to a bicyclic hydroquinone improves their antiplatelet effect via the regulation of mitochondrial function” (Redox Biology, 2024)",
  "key": {"[1]": {"tested_on": "complex I from Y. lipolytica mitochondrial membranes reconstituted into proteoliposomes", "experiment": "Proton pumping and activity of reconstituted complex I (ACMA quench in proteoliposomes)", "assay_type": "biochemical", "description": "Proton pumping and activity of reconstituted complex I. Purification of complex I from Y. lipolytica mitochondrial membranes and reconstitution of complex I into Proteoliposomes was performed as previously described. Briefly, complex I was reconstituted in proteoliposomes (Cxl), and then ACMA (9-Amino-6-Chloro-2-Methoxyacridine) was added to quantify the proton pumping activity. Fluorescence changes were monitored at 25 °C in a Fluorolog-3 spectrofluorometer (Horiba Scientific). Settings: λex = 430 nm, λem = 475, slit 5 nm, time increment 0.2 s. Proteoliposomes (15 μg protein) were diluted in 2 ml assay buffer (20 mM Mops pH 7.2, 80 mM KCl, 0.5 μM valinomycin). After starting the measurement, 0.5 μM ACMA, 70 μM decylubiquinone (DBQ), 125 μM NADH, NP4 […]/vehicle, and Carbonyl cyanide m-chlorophenyl hydrazone (CCCP) 5 μM were added after 50, 100, 150, 200 and 300 s, respectively. The measurements were done in triplicate for 5, 15, 30, 45, 60 and 100 μM NP4. The Average over the time after the addition of NADH/NP4/CCCP till the next addition was taken from each measurement. The quenching after NADH the addition was taken as the zero % value and the dequench with CCCP was set to 100%. The zero value was subtracted from the dequenching with NP4 and the max dequenching with CCCP. The DMSO negative control was measured in duplicate."}, "[2]": {"tested_on": "Washed platelets", "experiment": "Mitochondrial ROS (mtROS) levels (MitoSOX)", "assay_type": "cell-based, Human", "description": "Human platelet purification. The blood sample was obtained from voluntary donors (10 days without antiplatelet medication) who agreed to participate after signing informed consent (Scientific Ethics Committee of the University of Talca N° 04–2022). Briefly, blood anticoagulated with acid-citrate-dextrose (ACD) was obtained in a 4:1 v/v ratio. The sample was centrifuged for 12 min at 250 g to obtain platelet-rich plasma (PRP). Subsequently, the PRP was centrifuged for 8 min at 900 g to obtain the platelet pellet. The plasma supernatant was removed, and the platelets were resuspended in Tyrodes buffer without calcium plus ACD in a ratio of 5:1 v/v. The platelets were centrifuged once more for 8 min at 900 g and the pellet was resuspended in Tyrodes buffer without calcium. Finally, the platelets were counted (Mindray BC-3000 Plus hematology counter, Japan), adjusted to the desired concentration, and used within 3 h.\nMitochondrial ROS (mtROS) Levels. The MitoSOX probe was used to identify mitochondrial ROS production specifically. Washed platelets (50 × 10^6 platelets/mL) were labeled with the MitoSOX® Red probe (Invitrogen, Carlsbad, CA, USA) 10 μM and incubated for 20 min at 37 °C protected from light. After, compounds (1, 5, and 10 μM) were added to the platelets and incubated for 10 min at 37 °C. […]"}},
  "data": [
    {"smiles": "Cc1c(C)c(O)c2c(c1O)C(=O)C(CCCC[P+](c1ccccc1)(c1ccccc1)c1ccccc1)=CC2(C)C.[Br-]", "note": "[NP4, (4-(5,8-dihydroxy-4,4,6,7-tetramethyl-1-oxo-1,4-dihydronaphthalen-2-yl)butyl)triphenyl phosphonium bromide]", "values": [
      {"measurement": "IC50", "setting": "[1]; ACMA dequench relative to CCCP (100%), 5-100 μM NP4", "result": "37.7 ± 1.14", "unit": "µM"},
      {"measurement": "Concentrations that decouple complex I in liposomes", "setting": "[1]; ACMA fluorescence, proteoliposomes", "result": "30 to 60", "unit": "µM"},
      {"measurement": "mtROS generation", "setting": "[2]; 10 μM, MitoSOX, 10 min", "result": "able to increase"},
      {"measurement": "Dependence of depolarizing and antiplatelet effect on mtROS", "setting": "[2]; MitoTempol 1 µM added first, then NP4 10 µM", "result": "independent of mitochondrial ROS levels"}
    ]}
  ]
}
